According to publication PMC6748986, “Potent modulation of the CepR quorum sensing receptor and virulence in a Burkholderia cepacia complex member using non-native lactone ligands” (Scientific Reports, 2019):
Where a chain is given by its changes, count along the chain named. Like-named read-outs stand apart in the source and are kept apart here.

What was measured:
[1] = tested on: CepR; set-up: method as in PMID 15978077; settings: at concentrations greater than 1 μM; cited from earlier work
[2] = molecular target: T1, CepR (Burkholderia cenocepacia, UniProt B4EMD0); test: CepR agonism in E. coli β-galactosidase reporter (Ec-reporter) JLD271 [pJN105-cepR + pSC11-cepI]; type: cell-based, B. cenocepacia; settings: for Act%: Table S2, Ec-reporter, screening conc. 100 μM; for Maximal Activation (%): activity for 100 μM C8-AHL set to 100%, error ±10%
T1 sequence (B4EMD0 1-239): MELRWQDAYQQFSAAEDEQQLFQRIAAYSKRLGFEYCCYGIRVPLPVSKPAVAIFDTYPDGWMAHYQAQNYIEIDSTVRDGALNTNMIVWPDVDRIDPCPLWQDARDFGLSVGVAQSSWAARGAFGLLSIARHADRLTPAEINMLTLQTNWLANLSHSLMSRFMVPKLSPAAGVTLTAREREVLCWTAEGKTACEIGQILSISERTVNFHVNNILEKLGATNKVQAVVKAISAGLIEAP
Procedure, shortened: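 E. coli JLD271 (ΔsdiA) carrying arabinose-inducible CepR (27 mM L-arabinose) and cepI-lacZ fusion, grown 4 h with compound; β-galactosidase measured by CPRG cleavage at 37 °C (~30 min), normalized to OD600. Agonism compared with C8-AHL at 100 μM; screen at 100 μM or solubility limit, then dose-response; ≥3 trials.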

[3] = molecular target: T1, CepR; test: CepR antagonism in E. coli β-galactosidase reporter (Ec-reporter), competition against C8-AHL; type: cell-based, B. cenocepacia; settings: for Inh% (100-Act%): screening conc. 100 μM
Procedure, shortened: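 CepR antagonism was measured in E. coli JLD271 (∆sdiA) carrying pJN105-cepR, which expresses B. cenocepacia CepR from an arabinose-inducible pBAD promoter, and pSC11-cepI, which fuses lacZ to the cepI promoter. Induced cells were grown 4 h with compound and 10 nM C8-AHL. β-Galactosidase activity was then read by CPRG cleavage at 37 °C after Z Buffer permeabilization.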

[4] = molecular target: T2, CepR (Burkholderia multivorans, UniProt Q93PF7); test: CepR agonism in B. multivorans cepI::lacZ reporter (Bm-reporter); type: cell-based; settings: Table S4, Bm-reporter; screening conc. 100 μM
T2 sequence (Q93PF7 1-239): T1 sequence (B4EMD0 1-239) with W5R, A51S, Q69H, N84S, R95Q, D97A
Source text: (§1) We next sought to assess if the CepR modulators identified in the Ec-reporter maintained their activities in a member of the Bcc. For these studies, we generated a B. multivorans cepI::lacZ reporter organism (Bm-reporter) using standard allelic exchange methods (see Methods). Along with B. cenocepacia, B. multivorans is one of the most commonly isolated Bcc members[6],[44]. We note that small molecules must contend with a different cellular environment in the native organism relative to E. coli[48]; however, as both CepR and the cepI promoter are highly conserved among Bcc species (Fig. S3), we reasoned that the majority of compounds identified in the Ec-reporter (containing B. cenocepacia versions of the cepI promoter and the cepR gene) would maintain their relative activity profiles in CepR in B. multivorans. […] Similar to the Ec-reporter, CepR binding to the cepI promoter then induces β-galactosidase production, allowing for the quantitation of CepR activity. Using the Bm-reporter organism, we observed robust activity for CepR in response to C8-AHL (EC50 = 0.7 nM, Table 3).
(§2) The B. multivorans cepI::lacZ strain was used to obtain dose-response data for CepR in response to synthetic AHLs. Overnight cultures of B. multivorans cepI::lacZ were grown in LB medium at 37 °C with shaking (225 rpm). Aliquots (200 μL) of a 1:10 dilution of this overnight culture were plated into 96-well plates containing varying concentrations of compound, and then grown for 4 h at 37 °C with shaking (225 rpm). β-galactosidase production was measured as described above for E. coli, with the following changes: permeabilized cells were incubated at 25 °C with substrate CPRG for ~10 min until positive control wells developed a deep red color. For agonism assays, synthetic compound was screened alongside and compared to the native ligand, C8-AHL (100 μM). For antagonism assays, the concentration of native ligand utilized was 5 nM (approximately equal to twice its EC50 value).

[5] = molecular target: T2, CepR; test: CepR antagonism in B. multivorans cepI::lacZ reporter (Bm-reporter), competition against C8-AHL; type: cell-based; settings: for Inh% (100-Act%): screening conc. 100 μM; for IC50: read-out: IC50
Source text: as §1, §2

[6] = Ec-reporter, against 10 nM C8-AHL
[7] = Bm-reporter, against 5 nM C8-AHL
[8] = Table S3, Ec-reporter, against 10 nM C8-AHL

SMILES	Act% [2]	IC50 [3, 6]	Maximal Inhibition (%) [3, 6]	Maximal Inhibition (%) [5, 7]	Inh% (100-Act%) [3, 8]	Inh% (100-Act%) ([5]; Table S5, Bm-reporter)	other results
C#CCCCC(=O)NC1CCOC1=O (centres unmarked) [5-hexynoyl-HL]	–	–	–	–	–	–	Effect on CepR [1]: slight inhibitory effects
O=C(Cc1ccc(F)c(C(F)(F)F)c1)N[C@H]1CCOC1=O [Compound E10]	13%	0.43 µM	79%	21%	–	–	Act% [4]: 11%
CCCCCCCCCC(=O)CC(=O)Nc1ccccc1O [Control 14, reference compound]	30%	–	–	–	30%	25%	–
CSc1cccc(CC(=O)NC2CCOC2=O)c1 (centres unmarked) [Compound E7]	5.9%	3.1 µM	76%	97%	–	–	CepR antagonism in words ([5]; Bm-reporter): bring reporter activity down to nearly zero; IC50 [5, 7]: 4 µM
O=C(N[C@H]1CCOC1=O)C1CCCC1 [Compound S4]	0.2%	32 µM	72%	93%	–	–	IC50 [5, 7]: 3.7 µM
O=C(Cc1cccc2ccccc12)N[C@H]1CCOC1=O [Compound E13]	2.5%	–	–	13%	50%	–	IC50 ([3]; Table S3, Ec-reporter): 4.9 µM
O=C(Cc1cccc(I)c1)N[C@H]1CCOC1=O [Compound C11]	43%	–	–	–	27%	80%	Act% [4]: 2.3%; IC50 ([5]; Table S5, Bm-reporter): 1.6 µM
O=C(Cc1ccccc1I)N[C@H]1CCOC1=O [Compound C12]	-0.4%	–	–	–	72%	104%	IC50 ([3]; Table S3, Ec-reporter): 22 µM
CCCC(=O)N[C@H]1CCOC1=O [Compound C4-AHL, butanoyl L-homoserine lactone, reference compound]	23%	20 µM	58%	76%	–	–	Maximal Activation (%) ([2]; Ec-reporter): 23%; IC50 [5, 7]: 0.25 µM
N#Cc1ccc(CC(=O)N[C@H]2CCOC2=O)cc1 [Compound E4]	0.2%	–	–	–	29%	97%	IC50 ([5]; Table S5, Bm-reporter): ≥ 4.5 µM
O=C(Cc1ccccc1[N+](=O)[O-])N[C@H]1CCOC1=O [Compound C15]	1.4%	–	–	–	79%	95%	–
O=C(Nc1ccccc1NC(=O)c1cccc(Cl)c1)c1cccc(Cl)c1 [TP-5, reference compound]	0.4%	–	–	–	24%	15%	–
O=C(Cc1ccc(Cl)c(Cl)c1)N[C@H]1CCOC1=O [Compound E11]	1.9%	–	–	–	59%	94%	–
O=C(COc1cccc([N+](=O)[O-])c1)N[C@H]1CCOC1=O [Compound E25]	25%	3 µM	70%	83%	–	–	IC50 ([5]; Table S5, Bm-reporter): ≥ 3.3 µM
O=C(Cc1ccc(Br)cc1)N[C@H]1CCOC1=O [Control 7, reference compound]	0.2%	–	–	–	89%	85%	–
O=C(Cc1ccccc1Cl)N[C@H]1CCOC1=O [Compound C7]	0.3%	5.9 µM	89%	–	–	95%	–
N#Cc1cccc(CC(=O)N[C@H]2CCOC2=O)c1 [Compound E5]	4.9%	2.7 µM	81%	43%	–	–	–
O=C(Cc1ccccc1Br)N[C@H]1CCOC1=O [Compound C9]	0.3%	–	–	–	52%	99%	IC50 ([3]; Table S3, Ec-reporter): 40 µM
CCCCCCS(=O)(=O)N[C@H]1CCOC1=O [Compound A11]	-5.0%	–	78%	–	–	84%	CepR agonism in words ([2]; Ec-reporter): failed to activate CepR; Maximal Activation (%) ([2]; Ec-reporter): −5.0%
O=C(Cc1cccc([N+](=O)[O-])c1)NC1CCOC1=O (centres unmarked) [Compound C14]	16%	1.4 µM	46%	54%	–	–	IC50 [5, 7]: 0.62 µM
CCCCCC(=O)N[C@H]1CCOC1=O [Compound C6-AHL, hexanoyl L-homoserine lactone, reference compound]	87%	7.5 µM	83%	20%	–	–	Effect on CepR [1]: slight inhibitory effects; EC50 ([2]; Ec-reporter, agonism dose-response): ≥ 20 µM; Maximal Activation (%) ([2]; Ec-reporter): 87%
